# Experiments:
# [1] = target: T1, ASIC3 (Rattus norvegicus, UniProt O35240); conditions: cited from earlier work
# T1 sequence (O35240 1-533): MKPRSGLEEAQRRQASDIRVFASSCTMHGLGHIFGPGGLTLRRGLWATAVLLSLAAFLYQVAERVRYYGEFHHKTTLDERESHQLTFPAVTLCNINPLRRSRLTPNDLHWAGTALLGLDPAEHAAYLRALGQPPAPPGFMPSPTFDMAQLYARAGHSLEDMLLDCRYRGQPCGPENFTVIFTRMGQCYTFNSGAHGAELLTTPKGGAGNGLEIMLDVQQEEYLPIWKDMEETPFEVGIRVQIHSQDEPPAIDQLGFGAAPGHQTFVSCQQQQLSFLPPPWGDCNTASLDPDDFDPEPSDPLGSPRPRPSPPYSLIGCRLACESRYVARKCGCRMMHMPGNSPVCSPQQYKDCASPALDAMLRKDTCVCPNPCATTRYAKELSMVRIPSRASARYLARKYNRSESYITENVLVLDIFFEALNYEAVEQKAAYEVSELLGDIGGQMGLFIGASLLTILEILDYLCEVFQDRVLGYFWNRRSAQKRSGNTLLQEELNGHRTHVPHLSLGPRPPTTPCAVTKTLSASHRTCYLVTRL
# [2] = system: ASIC type current of cutaneous neurons of the spinal ganglia; assay: Whole cell patch clamp of native ASIC currents in cutaneous neurons of the spinal ganglia; type: cell-based, rat; conditions: pH 6.6; FIG. 1C
# Experimental: The neurons of the dorsal root ganglion (spinal ganglia or DRG) innervating the skin were labelled by subcutaneous injections of 5×1 μl of Dil fluorescent dye (5% DMSO, Molecular Probes) in the dorsal side of the rats' hind paws. The dye was injected two weeks before the rats were sacrificed in order to prepare a primary culture of dorsal root ganglion.
# The lumbar dorsal root ganglia L3-L6 of Wistar rats (8-11 weeks) were dissected bilaterally and separated enzymatically with 0.1% collagenase. The cells were subsequently plated on 35 mm Petri dishes covered with collagen and cultured at 37° C. (95% air/5% CO2) in DMEM medium containing 5% of foetal calf serum. The electrophysiological experiments were performed 1 to 8 days after seeding.
# The whole cell configuration of the patch clamp method was used ([ref. 48]) in order to measure the membrane currents (imposed voltage) or the membrane potentials (imposed current). The recordings were performed at ambient temperature using an RK-400 amplifier (Bio-Logic Science Instruments) with a 3 kHz low-pass filter (Krohn-Hite). The data were sampled at 10 kHz, digitised using a Digidata 1322A A-D/D-A converter (Axon Instruments) and recorded on a hard disk using pClamp software (version 9.2.0.11, Axon Instruments). The recording probes (1-4 MOhms) contained (in mM): 135 KCl, 2.5 Na2-ATP, 2 MgCl2, 2.1 CaCl2, 5 EGTA, 10 HEPES (pH 7.25 with KOH). Various different buffers and drugs of interest were added to the transfected cells considered individually using an internally developed microinfusion system controlled by microelectrovalves (Sirai, Italy) allowing rapid changes of solution. The control bath solution contained (in mM): 145 NaCl, 5 KCl, 2 MgCl2, 2 CaCl2, 10 HEPES (pH 7.4 with NaOH). The MES medium was used instead of the HEPES medium in order to buffer the solution at a pH ranging from 6 to 5, and the ASIC currents were induced by rapid changes of a control solution at pH 7.4 to an acid test solution using the microinfusion system. For the experiments conducted on the DRG neurons, glucose (10 mM) was added to the control bath solution. Hypertonic conditions were obtained by adding mannitol or sucrose to the external bath solutions, as indicated in the text.
# [3] = target: T2, human ASIC3 channels (Homo sapiens, UniProt Q9UHC3); assay: Whole cell patch clamp of human ASIC3 in transfected F-11 cells; type: cell-based; conditions: APETx2 at 1 μM; acidification pH 8.0 to pH 7.0
# T2 construct: expressed in transfected cells; host or cells: F-11 cells, vector pASIC3h-IRES-EGFP, JetPEI
# T2 sequence (Q9UHC3 1-531): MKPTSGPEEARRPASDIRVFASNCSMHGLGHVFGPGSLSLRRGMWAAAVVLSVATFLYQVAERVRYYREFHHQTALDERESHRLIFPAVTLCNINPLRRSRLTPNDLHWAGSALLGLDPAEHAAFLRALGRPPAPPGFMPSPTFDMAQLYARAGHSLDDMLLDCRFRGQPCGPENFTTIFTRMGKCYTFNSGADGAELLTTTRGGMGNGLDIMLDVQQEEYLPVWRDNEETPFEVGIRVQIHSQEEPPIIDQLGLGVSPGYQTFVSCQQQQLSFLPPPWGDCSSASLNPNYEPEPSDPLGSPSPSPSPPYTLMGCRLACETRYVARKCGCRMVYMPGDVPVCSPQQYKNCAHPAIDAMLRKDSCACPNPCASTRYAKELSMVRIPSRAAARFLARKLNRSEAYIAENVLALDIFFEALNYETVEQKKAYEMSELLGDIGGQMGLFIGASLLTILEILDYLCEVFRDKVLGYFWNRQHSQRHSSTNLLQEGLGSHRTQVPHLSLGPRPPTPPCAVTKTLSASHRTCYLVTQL
# Experimental: F-11 cells (refs. 44, 45, 46, 47]) were cultured in 5% of CO2 at a density of 50,000 cells per 35 mm Petri dish. The culture medium contained HAM F-12 medium (Invitrogen) supplemented with 15% foetal bovine serum (ICN Biomedicals), 1×HAT (sodium hypoxanthine, aminopterine and thymidine), 200 μg/ml of allo-4-hydroxy-L-proline (Sigma-Aldrich) and 1% antibiotics. One day after seeding, the cells were transfected with ASIC1a or ASIC3 DNAc (rat clones) using Lipofectamine™ (Invitrogen) according to the manufacturer's instructions using the vectors pCI-ASIC1ar+pIRES2-EGFP (ratio 1:2) or pCI-ASIC3r+pIRES2-EGFP (ratio 1:10) ([ref. 36]), quoted above). For the experiments concerning the human ASIC3 clone (refer to experiments on the effects of the APETx2 toxin on the human form of the ASIC3 channel), the cells were transfected with the DNAc of human ASIC3 using the transfection agent JetPEI (Polypus Transfection) according to the manufacturer's instructions with the aid of the vector pASIC3h-IRES-EGFP. […]
# The whole cell configuration of the patch clamp method was used ([ref. 48]) in order to measure the membrane currents (imposed voltage) or the membrane potentials (imposed current). […] The data were sampled at 10 kHz, digitised using a Digidata 1322A A-D/D-A converter (Axon Instruments) and recorded on a hard disk using pClamp software (version 9.2.0.11, Axon Instruments). […]
substance,measurement,setting,value
"peptide of 42 amino acids (SEQ ID NO: 3), three disulphide bonds, from sea anemone Anthopleura elegantissima; blocks ASIC3 [APETx2]",effect on the ASIC3 sustained current,[1]; sustained current,without affecting
same,IC50,"[1]; transient current, reversible block, read-out: IC50 for inhibition of the ASIC3 transient current",63 nM
same,sensitivity of the native ASIC currents to the toxin,[2],partial sensitivity
same,amplitude of the human ASIC3 currents,[3],significantly reduced

# From patent US8357659B2, “Method of treating pain or itching with APETx2 peptide toxin” (priority 2008, dated 2013)
